# Experiments:
# [1] = target: T1, Amine oxidase [flavin-containing] B (Homo sapiens, UniProt P27338); assay: Inhibition of recombinant human MAO-B using p-tyramine as substrate incubated for 15 mins followed by substrate addition and measured upto 20 mins by Amplex Red assay
# T1 sequence (P27338 whole entry): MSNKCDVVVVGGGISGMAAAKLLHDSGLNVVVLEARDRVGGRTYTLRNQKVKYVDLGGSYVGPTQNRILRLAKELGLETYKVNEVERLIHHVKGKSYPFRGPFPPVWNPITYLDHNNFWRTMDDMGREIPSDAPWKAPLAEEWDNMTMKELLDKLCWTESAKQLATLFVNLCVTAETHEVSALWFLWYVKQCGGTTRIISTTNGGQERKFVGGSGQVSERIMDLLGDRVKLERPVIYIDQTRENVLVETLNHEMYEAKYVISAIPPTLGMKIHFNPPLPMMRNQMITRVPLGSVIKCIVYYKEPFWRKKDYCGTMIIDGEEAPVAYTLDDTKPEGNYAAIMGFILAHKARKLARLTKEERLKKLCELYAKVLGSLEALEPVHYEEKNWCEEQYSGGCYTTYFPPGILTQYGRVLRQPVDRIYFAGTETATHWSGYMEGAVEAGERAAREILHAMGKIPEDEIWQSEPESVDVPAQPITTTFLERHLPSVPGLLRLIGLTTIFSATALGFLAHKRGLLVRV
# [2] = target: Cholinesterase (Equus caballus) (UniProt P81908); assay: Inhibition of horse serum BuChE using butyrylthiocholine iodide as substrate at 10 uM incubated for 6 mins followed by substrate addition by DTNB reagent based Ellman's method
# Acetylcholinesterase [3] = target: Acetylcholinesterase (Electrophorus electricus, UniProt O42275); assay: Inhibition of electric eel AChE using acetylthiocholine iodide as substrate incubated for 6 mins followed by substrate addition by DTNB reagent based Ellman's method
# [4] = target: T2, Amine oxidase [flavin-containing] A (Homo sapiens, UniProt P21397); assay: Inhibition of recombinant human MAO-A using p-tyramine as substrate incubated for 15 mins followed by substrate addition and measured for 15 to 20 mins by Amplex Red assay
# T2 sequence (P21397 whole entry): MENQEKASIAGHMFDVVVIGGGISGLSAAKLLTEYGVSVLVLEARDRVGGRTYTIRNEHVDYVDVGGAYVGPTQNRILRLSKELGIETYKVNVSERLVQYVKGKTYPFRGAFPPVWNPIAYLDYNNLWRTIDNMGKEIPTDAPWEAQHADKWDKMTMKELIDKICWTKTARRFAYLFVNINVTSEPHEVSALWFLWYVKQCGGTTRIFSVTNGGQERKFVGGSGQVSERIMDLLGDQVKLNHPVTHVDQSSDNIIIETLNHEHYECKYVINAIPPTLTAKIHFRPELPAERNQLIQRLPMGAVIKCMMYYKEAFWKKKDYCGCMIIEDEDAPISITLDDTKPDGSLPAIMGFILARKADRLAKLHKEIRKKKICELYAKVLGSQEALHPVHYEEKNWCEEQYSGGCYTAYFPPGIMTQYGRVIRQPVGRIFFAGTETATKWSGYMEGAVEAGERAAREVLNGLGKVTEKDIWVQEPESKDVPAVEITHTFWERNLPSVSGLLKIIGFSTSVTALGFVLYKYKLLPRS
# [5] = target: T1, Amine oxidase [flavin-containing] B; assay: Inhibition of recombinant human MAO-B expressed in baculovirus-infected BTI insect cells using p-tyramine as substrate incubated for 45 mins by fluorescence assay
# [6] = target: T2, Amine oxidase [flavin-containing] A; assay: Inhibition of recombinant human MAO-A using p-tyramine as substrate incubated for 10 mins followed by substrate addition and measured 20 mins by fluorescence assay
# [7] = target: T1, Amine oxidase [flavin-containing] B; assay: Inhibition of recombinant human MAO-B using p-tyramine as substrate incubated for 10 mins followed by substrate addition and measured 20 mins by fluorescence assay
# Homo sapiens = species: Homo sapiens; assay: Selectivity index, ratio of IC50 for inhibition of recombinant human MAO-B to IC50 for inhibition of recombinant human MAO-A
# [8] = target: T2, Amine oxidase [flavin-containing] A; assay: Inhibition of recombinant human MAO-A using kynuramine as substrate incubated for 10 mins followed by substrate addition and measured for 20 mins by Fluorescence microplate reader assay
# [9] = target: T1, Amine oxidase [flavin-containing] B; assay: Inhibition of human MAO-B using benzylamine as substrate preincubated for 15 mins followed by substrate addition and measured after 15 mins by fluorescence assay
# [10] = Oral bioavailability in ICR mouse at 10 mg/kg and measured after 24 hrs by HPLC analysis; format: ADME, organism-based; settings: in vivo
# Acetylcholinesterase [11] = target: T3, Acetylcholinesterase (Mus musculus, UniProt P21836); assay: Inhibition of mouse AChE using acetylthiocholine iodide as substrate incubated for 20 mins by DTNB reagent based Ellman's method
# T3 sequence (P21836 whole entry): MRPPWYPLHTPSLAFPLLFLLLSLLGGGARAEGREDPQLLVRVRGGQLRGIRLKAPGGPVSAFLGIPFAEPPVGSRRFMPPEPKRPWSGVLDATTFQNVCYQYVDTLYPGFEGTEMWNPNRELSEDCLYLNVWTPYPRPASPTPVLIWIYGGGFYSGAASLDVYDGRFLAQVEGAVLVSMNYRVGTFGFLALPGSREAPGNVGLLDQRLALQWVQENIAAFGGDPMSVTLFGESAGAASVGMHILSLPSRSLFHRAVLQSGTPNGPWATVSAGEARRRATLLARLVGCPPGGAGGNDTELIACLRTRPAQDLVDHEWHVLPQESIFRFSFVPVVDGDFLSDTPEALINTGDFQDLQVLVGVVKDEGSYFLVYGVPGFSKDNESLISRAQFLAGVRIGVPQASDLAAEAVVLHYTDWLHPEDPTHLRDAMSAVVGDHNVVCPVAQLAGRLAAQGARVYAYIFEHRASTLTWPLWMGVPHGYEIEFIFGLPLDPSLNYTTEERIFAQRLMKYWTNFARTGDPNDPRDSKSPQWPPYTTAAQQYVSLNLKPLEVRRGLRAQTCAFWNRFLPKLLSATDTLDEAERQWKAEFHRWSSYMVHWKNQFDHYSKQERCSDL
# [12] = target: T1, Amine oxidase [flavin-containing] B; assay: Inhibition of recombinant human MAO-B using kynuramine as substrate incubated for 20 min by fluorescent spectrophotometric assay
# [13] = target: T1, Amine oxidase [flavin-containing] B; assay: Inhibition of human MAO-B
# [14] = target: T4, Amine oxidase [flavin-containing] B (Rattus norvegicus, UniProt P19643); assay: Inhibition of rat brain mitochondria MAO-B using p-tyramine as substrate incubated for 15 mins followed by substrate addition and measured for 15 by microplate fluorescence reader analysis
# T4 sequence (P19643 whole entry): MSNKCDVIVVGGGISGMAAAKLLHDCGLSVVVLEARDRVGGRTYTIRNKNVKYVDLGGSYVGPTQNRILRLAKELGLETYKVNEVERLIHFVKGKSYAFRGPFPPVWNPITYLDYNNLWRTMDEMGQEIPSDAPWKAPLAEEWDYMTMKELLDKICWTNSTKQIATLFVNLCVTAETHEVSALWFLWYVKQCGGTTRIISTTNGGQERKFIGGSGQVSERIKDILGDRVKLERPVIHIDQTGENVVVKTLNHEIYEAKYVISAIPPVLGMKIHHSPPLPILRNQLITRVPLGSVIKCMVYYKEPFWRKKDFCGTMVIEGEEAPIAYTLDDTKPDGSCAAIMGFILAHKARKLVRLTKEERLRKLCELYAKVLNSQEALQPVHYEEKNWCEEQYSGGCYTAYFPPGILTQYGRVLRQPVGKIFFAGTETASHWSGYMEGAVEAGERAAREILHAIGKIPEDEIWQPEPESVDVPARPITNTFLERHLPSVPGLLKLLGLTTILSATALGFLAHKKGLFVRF
# Cholinesterase = Cholinesterase (Homo sapiens, UniProt P06276); assay: Inhibition of human BuChE using butyrylthiocholine iodide as substrate preincubated for 30 mins followed by substrate addition and measured after 15 mins by Ellman's method
# [15] = target: T2, Amine oxidase [flavin-containing] A; assay: Inhibition of human MAO-A using p-tyramine as substrate preincubated for 15 mins followed by substrate addition and measured after 30 mins by Ample red assay
# Acetylcholinesterase [16] = target: Acetylcholinesterase (Homo sapiens, UniProt P22303); assay: Inhibition of recombinant human AChE using acetylcholine as substrate preincubated for 15 mins followed by substrate addition and measured after 30 mins by Amplex Red reagent based fluorescence assay
# [17] = target: T1, Amine oxidase [flavin-containing] B; assay: Inhibition of MAO-B (unknown origin) using kynuramine as substrate preincubated for 10 mins followed by substrate addition and measured after 20 mins by fluorescence microplate reader assay
# [18] = target: T1, Amine oxidase [flavin-containing] B; assay: Inhibition of MAO-B (unknown origin) using as tyramine as substrate by Ampliflu red reagent based fluorometric method
# [19] = target: T2, Amine oxidase [flavin-containing] A; assay: Inhibition of recombinant human MAO-A expressed in insect cells using kynuramine as substrate incubated for 20 mins by Amplex Red reagent based fluorometric method
# [20] = target: T1, Amine oxidase [flavin-containing] B; assay: Inhibition of recombinant human MAO-B expressed in insect cells using kynuramine as substrate incubated for 20 mins by Amplex Red reagent based fluorometric method
# Chain of Acetylcholinesterase (Electrophorus electricus, UniProt O42275) (O42275 whole entry): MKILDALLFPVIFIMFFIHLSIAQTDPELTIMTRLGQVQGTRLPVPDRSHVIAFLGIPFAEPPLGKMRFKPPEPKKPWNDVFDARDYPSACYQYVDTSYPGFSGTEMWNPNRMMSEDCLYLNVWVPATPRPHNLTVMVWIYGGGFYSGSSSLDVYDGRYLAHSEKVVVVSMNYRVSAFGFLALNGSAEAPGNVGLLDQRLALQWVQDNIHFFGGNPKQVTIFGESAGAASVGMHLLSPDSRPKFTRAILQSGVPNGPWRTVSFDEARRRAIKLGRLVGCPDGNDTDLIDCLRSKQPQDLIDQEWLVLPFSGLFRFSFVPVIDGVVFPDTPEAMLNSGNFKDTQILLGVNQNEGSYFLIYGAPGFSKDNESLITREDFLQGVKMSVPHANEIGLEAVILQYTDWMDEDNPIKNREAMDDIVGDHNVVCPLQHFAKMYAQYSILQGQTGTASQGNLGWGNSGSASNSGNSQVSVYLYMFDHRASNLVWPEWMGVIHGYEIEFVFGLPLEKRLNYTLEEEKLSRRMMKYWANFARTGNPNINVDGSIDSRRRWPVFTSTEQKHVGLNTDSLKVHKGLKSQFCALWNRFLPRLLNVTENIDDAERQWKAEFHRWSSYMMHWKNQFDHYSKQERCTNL
# Chain of Cholinesterase (Equus caballus) (P81908 whole entry): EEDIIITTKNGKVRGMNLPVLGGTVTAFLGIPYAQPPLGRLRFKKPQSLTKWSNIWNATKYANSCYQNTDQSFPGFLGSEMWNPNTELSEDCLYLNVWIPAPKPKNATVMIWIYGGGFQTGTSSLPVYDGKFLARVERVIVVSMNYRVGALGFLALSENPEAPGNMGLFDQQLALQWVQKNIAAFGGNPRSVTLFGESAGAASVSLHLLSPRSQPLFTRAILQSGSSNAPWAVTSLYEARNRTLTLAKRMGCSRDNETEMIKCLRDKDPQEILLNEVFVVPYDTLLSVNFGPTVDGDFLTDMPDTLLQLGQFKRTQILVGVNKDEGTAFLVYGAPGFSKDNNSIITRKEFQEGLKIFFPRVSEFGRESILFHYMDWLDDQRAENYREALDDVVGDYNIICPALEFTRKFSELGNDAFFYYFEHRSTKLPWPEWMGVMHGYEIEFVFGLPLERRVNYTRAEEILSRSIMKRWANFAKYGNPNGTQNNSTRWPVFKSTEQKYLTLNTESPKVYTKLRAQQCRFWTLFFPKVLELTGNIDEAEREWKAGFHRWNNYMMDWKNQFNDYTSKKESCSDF
# Chain of Acetylcholinesterase (Homo sapiens, UniProt P22303) (P22303 whole entry): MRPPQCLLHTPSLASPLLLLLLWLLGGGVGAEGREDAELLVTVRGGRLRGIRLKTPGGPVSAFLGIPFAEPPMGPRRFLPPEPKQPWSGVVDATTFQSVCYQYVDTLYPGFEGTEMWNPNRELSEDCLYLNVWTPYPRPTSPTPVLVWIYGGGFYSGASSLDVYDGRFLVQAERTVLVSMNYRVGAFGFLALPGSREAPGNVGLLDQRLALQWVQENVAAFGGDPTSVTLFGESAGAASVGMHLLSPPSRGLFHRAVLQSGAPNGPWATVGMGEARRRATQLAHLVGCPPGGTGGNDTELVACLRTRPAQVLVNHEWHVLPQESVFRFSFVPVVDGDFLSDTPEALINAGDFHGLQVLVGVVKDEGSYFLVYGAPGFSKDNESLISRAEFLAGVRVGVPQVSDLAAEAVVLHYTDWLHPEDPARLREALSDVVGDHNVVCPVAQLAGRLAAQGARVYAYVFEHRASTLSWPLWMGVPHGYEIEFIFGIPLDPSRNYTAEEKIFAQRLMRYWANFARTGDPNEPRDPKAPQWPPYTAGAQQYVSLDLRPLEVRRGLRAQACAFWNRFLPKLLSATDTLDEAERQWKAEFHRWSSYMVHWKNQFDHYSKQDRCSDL
# Chain of Cholinesterase (P06276 whole entry): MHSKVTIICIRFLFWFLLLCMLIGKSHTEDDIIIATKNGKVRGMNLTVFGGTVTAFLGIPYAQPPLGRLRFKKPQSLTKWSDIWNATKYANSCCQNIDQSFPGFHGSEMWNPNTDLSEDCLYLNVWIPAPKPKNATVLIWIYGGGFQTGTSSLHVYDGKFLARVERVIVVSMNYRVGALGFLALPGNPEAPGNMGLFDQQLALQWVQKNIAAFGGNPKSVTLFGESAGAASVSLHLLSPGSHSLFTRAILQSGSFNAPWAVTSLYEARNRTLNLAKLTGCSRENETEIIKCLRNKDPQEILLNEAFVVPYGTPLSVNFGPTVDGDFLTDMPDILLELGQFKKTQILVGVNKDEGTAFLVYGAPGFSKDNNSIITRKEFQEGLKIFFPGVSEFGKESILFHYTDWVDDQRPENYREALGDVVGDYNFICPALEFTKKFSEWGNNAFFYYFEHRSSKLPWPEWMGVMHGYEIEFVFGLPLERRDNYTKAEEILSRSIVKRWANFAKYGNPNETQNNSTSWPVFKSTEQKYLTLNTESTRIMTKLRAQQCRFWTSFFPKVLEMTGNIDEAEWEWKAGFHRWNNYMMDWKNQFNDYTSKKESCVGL
smiles,measurement,setting,value
Cc1c(Cl)c(=O)oc2cc(OCCCSC(=S)N3C(C)CCCC3C)ccc12 (stereo not drawn),IC50,[1],101 nM
same,inhibition,[2],23.3%
same,IC50,Acetylcholinesterase [3],44 nM
same,IC50,[4],5.85 µM
Cn1ccc2cc(C(=S)Nc3ccc(F)cc3)ccc21,IC50,[5],28 nM
CN(C)c1ccc(/C=C/C(=O)c2cc(Cl)sc2Cl)cc1,IC50,[6],1990 nM
same,IC50,[7],40 nM
same,Ratio IC50,Homo sapiens,0.02
CCOc1ccc([N+](=O)[O-])c(N/N=C/c2ccccn2)n1,IC50,[8],9.52 µM
C#CCNCc1ccc2c(c1)ncn2-c1cc(NC(=S)NCC)ncn1,IC50,[9],2120 nM
same,bioavailability,[10],45.5%
same,IC50,Acetylcholinesterase [11],32 nM
O=c1cc(OCCN2CCOCC2)c2ccccc2o1,IC50,[12],372 nM
Cc1c(Cl)c(=O)oc2cc(OCCCCSC(=S)N3CCCCC3C)ccc12 (stereo not drawn),IC50,[1],8.9 nM
same,IC50,Acetylcholinesterase [3],6.8 nM
O=C1CCC2(O)c3c(ccc(O)c31)-c1ccc(O)c3c1C2C1OC1C3=O (stereo not drawn),IC50,[13],> 80 µM
CCOc1ccc([N+](=O)[O-])c(N/N=C/c2ccc(C(F)(F)F)cc2)n1,IC50,[8],13.1 µM
C/C(=N\NC(=O)C1CC(c2ccccc2)=NO1)c1ccc(C)cc1 (stereo not drawn),IC50,[14],5.1 nM
C#CCOc1ccc(-c2cc(-c3ccc(OCCN4CCOCC4)cc3)nc(N)n2)cc1,IC50,Cholinesterase,666 nM
same,IC50,[15],18.3 nM
same,IC50,Acetylcholinesterase [16],30.5 nM
CCOc1ccc([N+](=O)[O-])c(N/N=C/c2cccn2C)n1,IC50,[8],6.12 µM
CCOc1ccc([N+](=O)[O-])c(N/N=C/c2ccco2)n1,IC50,[17],10.6 µM
Cn1cc(/N=C/c2ccc([N+](=O)[O-])cc2)c(=O)n1-c1ccccc1,IC50,[18],49 nM
O=c1c(O)c(-c2ccc(O)c(O)c2)oc2cc(O)cc(O)c12 [QUERCETIN],IC50,[8],1.52 µM
CCCCOc1ccc(C2=NN(C(N)=S)C(c3ccccc3)C2)cc1 (stereo not drawn),IC50,[19],3.63 µM
same,Ratio IC50,Homo sapiens,9.55
same,IC50,[20],380 nM
